Data from patent publication US9808003B2, “Herbicidally active 2-(substituted-phenyl)-cyclopentane-1,3-dione compounds and derivatives thereof” (Syngenta Limited, priority 2013, dated 2017).

Tests used:
Assay type in all cases: in vivo
[1] = tested on: Alopecurus myosuroides (ALOMY); test: Test 1A glasshouse assay, post-emergence herbicidal activity; details: Alopecurus myosuroides, 312 h, application rate 250 g/ha, 13 days after application, visual (100%=total damage; 0%=no damage), read-out: Post-emergence Herbicidal Activity (% Phytotoxicity) ALOMY
How it was run: (§1)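 Phytotoxicity was rated visually on a 0–100% scale 13 days post-spray. Pot-grown seedlings, 8 days old, received aqueous spray from an acetone/water 50:50 formulation with 0.5% Tween 20, then were kept in the glasshouse at 24/16° C day/night, 14 h light, 65% humidity.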

Avena fatua (AVEFA) [2] = test: as above; details: Avena fatua, 312 h, application rate 250 g/ha, 13 days after application, visual (100%=total damage; 0%=no damage), read-out: Post-emergence Herbicidal Activity (% Phytotoxicity) AVEFA
How it was run: as §1

[3] = tested on: Echinochloa crus-galli (ECHCG); test: as above; details: Echinochloa crus-galli, 312 h, application rate 250 g/ha, 13 days after application, visual (100%=total damage; 0%=no damage), read-out: Post-emergence Herbicidal Activity (% Phytotoxicity) ECHCG
How it was run: as §1

Lolium perenne (LOLPE) [4] = test: as above; details: Lolium perenne, 312 h, application rate 250 g/ha, 13 days after application, visual (100%=total damage; 0%=no damage), read-out: Post-emergence Herbicidal Activity (% Phytotoxicity) LOLPE
How it was run: as §1

[5] = tested on: Alopecurus myosuroides (ALOMY); test: Test 1A glasshouse assay, pre-emergence herbicidal activity; details: 312 h, 250 g/ha, 13 days after application, read-out: Pre-emergence herbicidal activity (% phytotoxicity) ALOMY
Procedure: (§2) Seeds of a variety of test species were sown in standard soil in pots. After cultivation for one day (pre-emergence) or after 8 days cultivation (post-emergence) under controlled conditions in a glasshouse (at 24/16° C., day/night; 14 hours light; 65% humidity), the plants were sprayed with an aqueous spray solution derived from the formulation of the technical active ingredient in acetone/water (50:50) solution containing 0.5% Tween 20 (polyoxyethelyene sorbitan monolaurate, CAS RN 9005-64-5). The test plants were then grown under controlled conditions in a glasshouse (at 24/16° C., day/night; 14 hours light; 65% humidity) and watered twice daily. 13 days after application of the test herbicide, for pre- and post-emergence, the test was evaluated visually for percentage phytotoxicity to the plant (where 100%=total damage to plant; 0%=no damage to plant).
(§3) Test plants: Lolium perenne (LOLPE), Alopecurus myosuroides (ALOMY), Echinochloa crus-galli (ECHCG), and Avena fatua (AVEFA); these are all grassy monocotyledonous weeds.

Avena fatua (AVEFA) [6] = test: as above; details: 312 h, 250 g/ha, 13 days after application, read-out: Pre-emergence herbicidal activity (% phytotoxicity) AVEFA
Procedure: as §2, §3

[7] = tested on: Echinochloa crus-galli (ECHCG); test: as above; details: 312 h, 250 g/ha, 13 days after application, read-out: Pre-emergence herbicidal activity (% phytotoxicity) ECHCG
Procedure: as §2, §3

Lolium perenne (LOLPE) [8] = test: as above; details: 312 h, 250 g/ha, 13 days after application, read-out: Pre-emergence herbicidal activity (% phytotoxicity) LOLPE
Procedure: as §2, §3

[9] = tested on: Spring Barley “Harrington”; test: Test 1B glasshouse assay, post-emergence herbicidal activity against cereal crops; details: for Post-emergence herbicidal activity against cereal crops, percentage phytotoxicity, Spring Barley “Harrington”: 14 DAA
How it was run: (§4)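 Technical compound in IF50 with acetone, diluted into 0.5% v/v Adigor, sprayed post-emergence on 14-day glasshouse plants (22/16 °C, 16 h light, 65% humidity), typically at 60, 90 or 120 g/ha, with or without 50 g/ha cloquintocet-mexyl safener. Phytotoxicity scored visually 14 DAA (0–100%), mean of two replicates.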

Winter Barley “Suzuka” = test: as above; details: for Post-emergence herbicidal activity against cereal crops, percentage phytotoxicity, Winter Barley “Suzuka”: 14 DAA
How it was run: as §4

Winter Wheat “Hereward” = test: as above; details: for Post-emergence herbicidal activity against cereal crops, percentage phytotoxicity, Winter Wheat “Hereward”: 14 DAA
How it was run: as §4

[10] = 30 g/ha herbicide, 50 g/ha cloquintocet-mexyl
[11] = 45 g/ha herbicide, 50 g/ha cloquintocet-mexyl
[12] = 60 g/ha herbicide, 0 g/ha cloquintocet-mexyl
[13] = 60 g/ha herbicide, 50 g/ha cloquintocet-mexyl
[14] = herbicide 30 g/ha, cloquintocet-mexyl 50 g/ha
[15] = herbicide 60 g/ha, cloquintocet-mexyl 0 g/ha
[16] = herbicide 60 g/ha, cloquintocet-mexyl 50 g/ha
[17] = herbicide 45 g/ha, cloquintocet-mexyl 50 g/ha

`Cc1cc(C)c(C2C(=O)CC(CCNC(=O)c3cccc(F)n3)C2=O)c(C)c1` (racemic) [Compound A89] showed a pest or weed control at 250 g/ha [1] of 100%, a pest or weed control at 250 g/ha (Avena fatua (AVEFA) [2]) of 100% and a pest or weed control at 250 g/ha [3] of 100%. For the same compound, the pest or weed control at 250 g/ha (Lolium perenne (LOLPE) [4]) was 100%, the inhibition at 250 g/ha [5] was 100% and the inhibition at 250 g/ha (Avena fatua (AVEFA) [6]) was 100%. The inhibition at 250 g/ha [7] was 100%, the inhibition at 250 g/ha (Lolium perenne (LOLPE) [8]) was 100% and the “Post-emergence herbicidal activity against cereal crops, percentage phytotoxicity, Spring Barley “Harrington”” value [9, 10] was 13%. For the same compound, the “Post-emergence herbicidal activity against cereal crops, percentage phytotoxicity, Spring Barley “Harrington”” value [9, 11] was 55%, the “Post-emergence herbicidal activity against cereal crops, percentage phytotoxicity, Spring Barley “Harrington”” value [9, 12] was 95% and the “Post-emergence herbicidal activity against cereal crops, percentage phytotoxicity, Spring Barley “Harrington”” value [9, 13] was 85%. For the same compound, the “Percentage Phytotoxicity Spring Barley “Harrington”” value [9, 14] was 13%, the “Percentage Phytotoxicity Spring Barley “Harrington”” value [9, 15] was 88% and the “Percentage Phytotoxicity Spring Barley “Harrington”” value [9, 16] was 43%. The “Post-emergence herbicidal activity against cereal crops, percentage phytotoxicity, Winter Barley “Suzuka”” value (Winter Barley “Suzuka”; [10]) was 8%, the “Post-emergence herbicidal activity against cereal crops, percentage phytotoxicity, Winter Barley “Suzuka”” value (Winter Barley “Suzuka”; [11]) was 20% and the “Post-emergence herbicidal activity against cereal crops, percentage phytotoxicity, Winter Barley “Suzuka”” value (Winter Barley “Suzuka”; [12]) was 95%. The “Post-emergence herbicidal activity against cereal crops, percentage phytotoxicity, Winter Barley “Suzuka”” value (Winter Barley “Suzuka”; [13]) was 73%, the “Percentage Phytotoxicity Winter Barley “Suzuka”” value (Winter Barley “Suzuka”; [14]) was 8% and the “Percentage Phytotoxicity Winter Barley “Suzuka”” value (Winter Barley “Suzuka”; [15]) was 90%. The “Percentage Phytotoxicity Winter Barley “Suzuka”” value (Winter Barley “Suzuka”; [16]) was 25%, the “Post-emergence herbicidal activity against cereal crops, percentage phytotoxicity, Winter Wheat “Hereward”” value (Winter Wheat “Hereward”; [10]) was 15% and the “Post-emergence herbicidal activity against cereal crops, percentage phytotoxicity, Winter Wheat “Hereward”” value (Winter Wheat “Hereward”; [11]) was 25%. For the same compound, the “Post-emergence herbicidal activity against cereal crops, percentage phytotoxicity, Winter Wheat “Hereward”” value (Winter Wheat “Hereward”; [12]) was 60%, the “Post-emergence herbicidal activity against cereal crops, percentage phytotoxicity, Winter Wheat “Hereward”” value (Winter Wheat “Hereward”; [13]) was 28% and the “Percentage Phytotoxicity Winter Wheat “Hereward”” value (Winter Wheat “Hereward”; [14]) was 10%. For the same compound, the “Percentage Phytotoxicity Winter Wheat “Hereward”” value (Winter Wheat “Hereward”; [15]) was 75% and the “Percentage Phytotoxicity Winter Wheat “Hereward”” value (Winter Wheat “Hereward”; [16]) was 25%.

Work on `Cc1cc(C)c(C2C(=O)CC(CCNC(=O)c3ccc(Br)cn3)C2=O)c(C)c1` (racemic) [Compound A120, 5-bromo-N-{2-[2,4-dioxo-3-(2,4,6-trimethylphenyl)cyclopentyl]ethyl}pyridine-2-carboxamide] yielded a pest or weed control at 250 g/ha [1] of 100%, a pest or weed control at 250 g/ha (Avena fatua (AVEFA) [2]) of 90% and a pest or weed control at 250 g/ha [3] of 100%. It also gave a pest or weed control at 250 g/ha (Lolium perenne (LOLPE) [4]) of 100%, an inhibition at 250 g/ha [5] of 90% and an inhibition at 250 g/ha (Avena fatua (AVEFA) [6]) of 70%. For the same compound, the inhibition at 250 g/ha [7] was 100%, the inhibition at 250 g/ha (Lolium perenne (LOLPE) [8]) was 100% and the “Percentage Phytotoxicity Spring Barley “Harrington”” value [9, 14] was 25%. For the same compound, the “Percentage Phytotoxicity Spring Barley “Harrington”” value [9, 17] was 38%, the “Percentage Phytotoxicity Spring Barley “Harrington”” value [9, 15] was 78% and the “Percentage Phytotoxicity Spring Barley “Harrington”” value [9, 16] was 38%. The “Percentage Phytotoxicity Winter Barley “Suzuka”” value (Winter Barley “Suzuka”; [14]) was 15%, the “Percentage Phytotoxicity Winter Barley “Suzuka”” value (Winter Barley “Suzuka”; [17]) was 40% and the “Percentage Phytotoxicity Winter Barley “Suzuka”” value (Winter Barley “Suzuka”; [15]) was 88%. The “Percentage Phytotoxicity Winter Barley “Suzuka”” value (Winter Barley “Suzuka”; [16]) was 40%, the “Percentage Phytotoxicity Winter Wheat “Hereward”” value (Winter Wheat “Hereward”; [14]) was 38% and the “Percentage Phytotoxicity Winter Wheat “Hereward”” value (Winter Wheat “Hereward”; [17]) was 50%. For the same compound, the “Percentage Phytotoxicity Winter Wheat “Hereward”” value (Winter Wheat “Hereward”; [15]) was 68% and the “Percentage Phytotoxicity Winter Wheat “Hereward”” value (Winter Wheat “Hereward”; [16]) was 50%.
